Experimental data reported in US6608048B2, “Tricyclic protein kinase inhibitors” (Wyeth Holdings, priority 2000, dated 2003).
Values belong to the molecule of their own block, whether it stands above or below them.

Columns and labels:
[1] = test system: Human epidermoid tumors (A431); assay: In vivo inhibition of the growth of human epidermoid tumors (A431); conditions: for S/T (# of Survivors/# of Treated): Day +21 post tumor staging
Method: BALB/c nu/nu female mice (Charles River, Wilmington, Mass.) were used in the in vivo standard pharmacological test procedures. Human epidermoid carcinoma cells A-431 (American Type Culture Collection, Rockville, Md. #CRL-155) were grown in vitro as described above. A unit of 5×10^6 cells were injected subcutaneously into mice. When tumors attained a mass of between 100 and 150 mg, the mice were randomized into treatment groups (day zero). Mice were treated orally (PO) once a day on days 1 through 10 post staging with doses of either 40, 20, 10, 3 or 1 mg/kg/dose of the compound to be evaluated in 0.2% Klucel. Control animals received no drug. Tumor mass was determined every 7 days [(length×width^2)/2] for 28 days post staging. Relative tumor growth (Mean tumor mass on day 7, 14, and 21 divided by the mean tumor mass on day zero) is determined for each treatment group. The % T/C (Tumor/Control) is determined by dividing the relative tumor growth of the treated group by the relative tumor growth of the placebo group and multiplying by 100. A compound is considered to be active if the % T/C is found to be=42%.

[2] = molecular target: T1, EGF-R Kinase (recombinant enzyme) (Homo sapiens, UniProt P00533); assay: Inhibition of Epidermal Growth Factor Receptor Kinase (EGF-R) using recombinant enzyme; format: biochemical; conditions: RR-SRC peptide substrate
T1 construct: containing the EGFR cDNA encoding amino acids 645-1186 preceded by Met-Ala-(Ris)6; made in house; host or cells: Sf9 insect cells, recombinant baculovirus vHcEGFR52
Method: Representative test compounds were evaluated for their ability to inhibit the phosphorylation of the tyrosine residue of a peptide substrate catalyzed by the enzyme epidermal growth factor receptor kinase. […] The enzyme used in this assay is the His-tagged cytoplasmic domain of EGFR. […] A cytoplasmic extract was prepared using 1% Triton X-100 and applied to Ni-NTA column.
Test compounds were made into 10 mg/mL stock solutions in 100% dimethylsulfoxide (DMSO).
The IC50 is the concentration of test compound needed to reduce the total amount of phosphorylated substrate by 50%. The % inhibition of the test compound was determined for at least three different concentrations and the IC50 value was evaluated from the dose response curve.
CPM(control) is in units of counts per minute and was a number expressing the amount of radiolabeled ATP (γ-^33P) incorporated into the RR-SRC peptide substrate by the enzyme after 90 minutes at room temperature in the absence of test compound as measured by liquid scintillation counting. The CPM values were corrected for the background counts produced by ATP in the absence of the enzymatic reaction.

T1 sequence (P00533 669-1210): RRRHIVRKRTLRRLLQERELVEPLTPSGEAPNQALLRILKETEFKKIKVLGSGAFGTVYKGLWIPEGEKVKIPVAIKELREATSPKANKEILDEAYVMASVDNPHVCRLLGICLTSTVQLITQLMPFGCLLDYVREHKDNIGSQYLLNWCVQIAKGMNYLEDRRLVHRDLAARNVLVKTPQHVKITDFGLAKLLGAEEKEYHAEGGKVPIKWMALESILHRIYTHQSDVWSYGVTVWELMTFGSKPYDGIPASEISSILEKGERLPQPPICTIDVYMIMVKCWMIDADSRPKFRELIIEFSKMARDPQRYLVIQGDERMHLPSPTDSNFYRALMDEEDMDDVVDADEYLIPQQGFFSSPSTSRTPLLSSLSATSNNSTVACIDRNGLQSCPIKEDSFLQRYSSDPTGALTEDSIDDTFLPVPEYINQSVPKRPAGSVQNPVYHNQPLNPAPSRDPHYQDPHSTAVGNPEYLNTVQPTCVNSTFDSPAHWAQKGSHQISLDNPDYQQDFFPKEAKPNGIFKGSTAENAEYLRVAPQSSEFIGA

- IC50 [2]: 200 nM
- melting point: 165 °C
Compound: CN(C)CCCC(=O)N1CCOc2cc3ncc(C#N)c(Nc4ccc(F)c(Cl)c4)c3cc21 [Example 10, 9-(3-Chloro-4-fluoroanilino)-1-[4-(dimethylamino)butanoyl]-2,3-dihydro-1H-[1,4]oxazino[3,2-g]quinoline-8-carbonitrile]

- melting point: 78 to 79 °C
Compound: N#Cc1cnc2cc3c(cc2c1Nc1ccc(F)c(Cl)c1)N(CCCCCl)CCO3 [Example 11, 1-(4-Chlorobutyl)-9-(3-chloro-4-fluoroanilino)-2,3-dihydro-1H-[1,4]oxazino[3,2-g]quinoline-8-carbonitrile]

- IC50 [2]: 5 nM
- melting point: 105 °C
Compound: CN(C)CCCCN1CCOc2cc3ncc(C#N)c(Nc4ccc(F)c(Cl)c4)c3cc21 [Example 12, 9-(3-Chloro-4-fluoroanilino)-1-[4-(dimethylamino)butyl]-2,3-dihydro-1H-[1,4]oxazino[3,2-g]quinoline-8-carbonitrile]

Continued, molecule first:

Compound: N#Cc1cnc2cc3c(cc2c1Nc1ccc(F)c(Cl)c1)NCCO3 [Example 7, 9-(3-Chloro-4-fluoroanilino)-2,3-dihydro-1H-[1,4]oxazino[3,2-g]quinoline-8-carbonitrile]
- melting point: 244 to 245 °C

Compound: CN(C)C/C=C/C(=O)N1CCOc2cc3ncc(C#N)c(Nc4ccc(F)c(Cl)c4)c3cc21 [Example 9, 9-(3-Chloro-4-fluoroanilino)-1-[(2E)-4-(dimethylamino)-2-butenoyl]-2,3-dihydro-1H-[1,4]oxazino[3,2-g]quinoline-8-carbonitrile]
- S/T (# of Survivors/# of Treated) ([1]; 1 mg/kg/dose PO, days 1 through 10): 5/5
- S/T (# of Survivors/# of Treated) ([1]; 3 mg/kg/dose PO, days 1 through 10): 5/5
- RTG (relative tumor growth) Day 21 ([1]; 10 mg/kg/dose PO, days 1 through 10, Day 21): 11.09
- S/T (# of Survivors/# of Treated) ([1]; 10 mg/kg/dose PO, days 1 through 10): 5/5
- S/T (# of Survivors/# of Treated) ([1]; 20 mg/kg/dose PO, days 1 through 10): 5/5
- S/T (# of Survivors/# of Treated) ([1]; 40 mg/kg/dose PO, days 1 through 10): 5/5
- inhibition of tumor growth in vivo (in words) ([1]; A431 tumors in mice, PO): effective inhibitor of tumor growth in vivo

Compound: N#Cc1cnc2cc3c(cc2c1Nc1ccc(Cl)cc1Cl)OCCN3 [Example 22, 9-(2,4-Dichloroanilino)-3,4-dihydro-2H-[1,4]oxazino[2,3-g]quinoline-8-carbonitrile]
- melting point: 254 to 255 °C

Compound: CCN1CCN(CCCCN2CCOc3cc4c(Nc5ccc(Cl)cc5Cl)c(C#N)cnc4cc32)CC1 [Example 24, 9-(2,4-Dichloroanilino)-4-[4-(4-ethyl-1-piperazinyl)butyl]-3,4-dihydio-2H-[1,4]oxazino[2,3-g]quinoline-8-carbonitrile]
- melting point: 97 to 98 °C
